For one experiment, the system named is isolated rat left atria. The experiment is described as follows: Pharmacological activation of spontaneous tachycardic activity (STA): calcium-loading agents with or without 2-APB. The conditions noted are these: for ectopic activity / mechanical stability without 2-APB / effect on left atrial force of contraction: agent without 2-APB, at the concentration given; for T0.5R (time to 50% relaxation) / T0.9R (time to 90% relaxation) / TPT (time to peak tension) / SMA Rate: concentrations per footnote; for Force Post: mg force per g atrial wet weight following a 10 min exposure to the agent; for Force Pre: mg force per g atrial wet weight prior to exposure to the agent; for SMA Rate: spontaneous atrial mechanical events. How it is done: Male Sprague-Dawley rats (325-400 g) were anesthetized with intra-peritoneal pentobarbital (0.1 g/kg). Their right and left atria were isolated, superfused at 30° C. in Krebs-Henseleit buffer, and nearly isometric forces of contraction were measured from these muscles (Wolkowicz et al., 2002). 2-APB was prepared as a 150 mM dimethyl sulfoxide stock.
Left atria (n=8 per group) were paced at 3 Hz and (i) titrated with 0 to 30 nM isoproterenol (Ahlquist, 1970) or (ii) exposed to 3 μM forskolin (Laurenza et al., 1980). Left atrial force and frequency of contraction, the time to peak tension and relaxation times were recorded after a 3-5 min exposure to forskolin or to any concentration of isoproterenol. The 3 Hz pacing stimulus was interrupted at the end of these protocols to measure SMA. […]
Left atrial contraction and relaxation times were recorded at these five times, the pacing stimulus was stopped and rates of SMA were recorded. […] Atrial mechanical function was measured at these four times; the pacing stimulus then was stopped and rates of SMA were recorded.
Left atria (n=6 per group) were paced at 3 Hz, titrated with 0 to 300 nM (−)BayK 8644 ([…]-1,4-Dihydro-2,6-dimethyl-5-nitro-4-[2-(trifluormethyl)phenyl]-3-pyridinecarboxylic acid methyl ester; Franckowiak et al. 1985) or FPL-64176 (2,5-Dimethyl-4-[2-(phenylmethyl)benzoyl]-1H-pyrrole-3-carboxlic acid methyl ester); Zheng et al., 1991) and their mechanical function and rates of SMA were recorded after a 5 min exposure to any concentration of slow calcium channel activator.
Atrial mechanical function was recorded at this time; the pacing stimulus then was stopped and rates of SMA were recorded. […]
Left atria (n=7) were paced at 3 Hz, treated with 120 μM ouabain (Illanes and Marshall, 1964), and any change in mechanical function was recorded at a new steady state, ˜10 min later. […]

Experiment [1] has as its system rat left atria. The experiment is described as follows: Suppression of STA induced by 2-APB plus BayK 8644 or isoproterenol in left atria. Conditions: data not shown. The protocol: 3 Hz-paced left atria (n=9 per group) were superfused (i) in Krebs-Henseleit alone or (ii) they were treated with 20 μM 2-APB for 10 min, (iii) with 300 nM BayK 8644 for 10 min and with 20 μM 2-APB for 10 min, or (iv) they were treated with 300 nM BayK 8644 and 20 μM 2-APB for 10 min, then with 70 μM zatebradine (3-[3-[[2-(3,4-Dimethoxyphenyl)ethyl]methyl amino]propyl]-1,3,4,5-tetrahydro-7,8,-dimethoxy-2H-3-benzazepin-2-one hydrochloride) for 10 min (Baruscotti et al., 2005). Pacing was interrupted at these times and rates of SMA were recorded.
(§1) Left atria (n=9) were paced at 0.1 Hz, treated with 300 nM BayK 8644 for 5 min, then with 20 μM 2-APB for 10 min, and the pacing stimulus was stopped. These preparations then were incubated with six increasing concentrations of zatebradine (10-100 μM) for 3-5 min at each concentration, and rates of SMA were recorded. Untreated right atria (n=9) also were titrated with zatebradine and its effect on contraction frequency was recorded.
To test whether zatebradine affects left atrial force of contraction, two groups of left atria (n=9 per group) were paced at 3 Hz and treated with 300 nM BayK 8644. Five minutes later one group was incubated with six increasing concentrations of zatebradine (10-100 μM) for 3-5 min at each concentration, and forces of contraction were recorded. A second group was treated with BayK 8644 but not zatebradine, and forces of contraction were recorded at corresponding times.
(§2) To test whether zatebradine affects the SMA occurring in the presence of 2-APB and isoproterenol, left atria (n=7) were paced at 0.1 Hz, treated with 30 nM isoproterenol for 5 min, then with 20 μM 2-APB for 10 min, and the pacing stimulus was stopped. Rates of SMA were recorded, these left atria were exposed to 70 μM zatebradine for 10 min, and rates of SMA were recorded again. A group of right atria (n=7) also were exposed to 30 nM isoproterenol for 5 min and then to 70 μM zatebradine for 10 min. Right atrial contraction frequency was recorded at these two times.
(§3) To test whether ZD-7288, an If inhibitor structurally unrelated to zatebradine (Baruscotti et al., 2005; Sanders et al., 2006) affects the SMA occurring in the presence of 2-APB and BayK 8644, rat left atria (n=7) were treated with 300 nM BayK 8644 for 5 min, then with 20 μM 2-APB for 10 min, and the rates of ectopic activity were recorded. These atria then were incubated with six increasing concentrations of ZD-7288 (10-100 μM) for 3-5 min at each concentration, and the rates of SMA were recorded. Right atria (n=7) were titrated similarly with ZD-7288 (0-100 μM) and the change in their contraction frequency was recorded.
In these experiments, a 2-APB model system was used to simulate tachycardic abnormal automaticity. Specifically, superfused left atria were treated sequentially with 300 nM BayK 8644, an activator of voltage-dependent calcium entry, which loads myocytes with calcium, and then with 2-APB (20 μM) to activate the putative myocyte system for abnormal automaticity. […] SKF-96365 (10 μM) was added to the superfusate. SKF-96365 reversed STA in these left atria within 2-3 min and the muscle became quiescent in the absence of pacing (FIG. 34, “Rest”).
Additional experiments determined the concentration-dependence of SKF-96365 inhibition of STA. These experiments were performed as described above except that various concentrations of SKF-96365 were added to the left atrial superfusate (about 10-70 μM). Exposing left atria to various concentrations of SKF-96365 reversed STA (FIG. 35).

Experiment [2] deals with rat left atria. The experiment is described as follows: Reversal or prevention of 2-APB-induced SMA in superfused rat left atria. Conditions: for effect on 2-APB-induced sporadic ectopic activity (SMA): titration after appearance of SMA, absence of pacing. The protocol:
(A) Titration curve of ranolazine reversal of SMA in superfused left atrial appendage. Superfused appendages (n=7) were treated with 2-APB and following the appearance of SMA they were titrated with increasing concentrations of ranolazine for 3-5 min at any concentration. Rates of SMA in the absence of pacing were recorded. (B) Typical raw mechanical data for an appendage treated with 2-APB and then with 0, 10 or 80 μM ranolazine. All data are in the absence of pacing. […]
To test whether an anion transport inhibitor affected SMA, atria (n=7) were paced at 0.1 Hz in KH and exposed to 15 μM 2-APB. Following the appearance of SMA, they were titrated with 100 to 400 μM DIDS for 3 to 5 min at each concentration. Whether SMA occurred at the end of each titration period was recorded.
In these experiments, a 2-APB model system was used to simulate abnormal automaticity. Specifically, paced (0.1 Hz) superfused left atria were treated with 2-APB (20 μM) and the pacing stimulus was stopped after the appearance of SMA. SKF-96365 (25 μM) was then added to the superfusate and the effect on SMA was measured.
Additional experiments determined the concentration-dependence of SKF-96365 inhibtion of SMA. These experiments were performed as described above except that various concentrations of SKF-96365 were added to the left atrial superfusate (about 10-65 μM).
In these experiments, a 2-APB model system was used to simulate abnormal automaticity. Specifically, superfused left atria were exposed to 0 or to 50 μM SKF-96365 for 10 min. Following this pre-incubation, muscles were titrated with increasing concentrations of 2-APB (0-30 μM) and the rate of SMA was measured about 10 min later in the absence of pacing.

The subject of experiment [3] is rat left atria. The conditions noted are these: 25 nM ATX II.
Another experiment deals with rat right atria. The experiment is described as follows: Right atrial spontaneous contraction frequency. The conditions noted are these: 30 nM isoproterenol for 5 min. How it is done: as §1, §2, §3

Entries after “also recorded” stand apart in the source; their conditions may differ. Marks after values point to notes of the source that are not given here. Bounds are passed on as bounds.

Take `COC(=O)C1=C(C)NC(C)=C([N+](=O)[O-])[C@H]1c1ccccc1C(F)(F)F` [BayK 8644, (45)-1,4-Dihydro-2,6-dimethyl-5-nitro-4-[2-(trifluormethyl)phenyl]-3-pyridinecarboxylic acid methyl ester]: in the experiment on isolated rat left atria, the “ectopic activity / mechanical stability without 2-APB” value is listed as “does not produce ectopic activity”, the “effect on left atrial force of contraction” value was “increases their force of contraction”, the “T0.5R (time to 50% relaxation)” value was 35.2 msc and the “T0.9R (time to 90% relaxation)” value came to 73.2 msc. Further, in the experiment with isolated rat left atria, the “TPT (time to peak tension)” value is given as 54.1 msc, the “Force Post” value is reported as 83* mg/gww, the “Force Pre” value was determined as 33 mg/gww and the “SMA Rate” value worked out at 0 SMEs per minute.

On to `COc1ccccc1OCC(O)CN1CCN(CC(=O)Nc2c(C)cccc2C)CC1` (stereo not shown) [ranolazine, N-(2,6-dimethylphenyl)-2-[4-[2-hydroxy-3-(2-methoxyphenoxy)propyl]piperazin-1-yl]acetamide], for which the “effect on tachycardic activity with high calcium loads” value in the experiment on rat left atria [1] was “suppresses, but does not completely prevent”. The entries for the “effect on 2-APB-induced sporadic ectopic activity (SMA)” value (“effect … (SMA)” below) with rat left atria [2] and in the experiment on rat left atria [2] (listed as Ranolazine) were “prevent the sporadic ectopic activity” and “blocks ectopic activity”, respectively.

Turning to `O=C(NCC1CCCCN1)c1cc(OCC(F)(F)F)ccc1OCC(F)(F)F` (stereo not shown) [flecainide], the “effect … (SMA)” value in the experiment with rat left atria [2] is on record as “suppress this arrhythmic activity”.

Regarding `C=C[C@@]1(C)CC(=O)[C@]2(O)[C@@]3(C)[C@@H](O)CCC(C)(C)[C@@H]3[C@H](O)[C@H](OC(C)=O)[C@@]2(C)O1` [forskolin], in the experiment with isolated rat left atria, the “T0.5R (time to 50% relaxation)” value is on record as 28.7^‡ msc, the “T0.9R (time to 90% relaxation)” value is on record as 58.4^‡ msc, the “TPT (time to peak tension)” value is on record as 44.6* msc and the “Force Post” value is recorded as 62* mg/gww. Besides, in the experiment on isolated rat left atria, the “Force Pre” value is reported as 21 mg/gww and the “SMA Rate” value worked out at 0 SMEs per minute.

Take Anemonia sulcata Toxin II [ATX II]: the “induction of triggered activity (contractile doublets)” value with rat left atria [3] (left atria paced at 1 Hz) is “triggered activity is induced”.

On to `COc1ccc(CCN(C)CCCC(C#N)(c2ccc(OC)c(OC)c2)C(C)C)cc1OC` (stereo not shown) [verapamil], for which, in the experiment on rat left atria [3] (10 μM verapamil for 5 min, expanded scale), the “triggered events after exposure to verapamil” value is “continued presence of triggered events”. Also, the “effect on left atrial force of contraction / mechanical performance (titration)” value with rat left atria [3] (1 Hz-paced, ~5 min at each concentration) is “markedly decreased contractile force”. Besides, the “effect on the rate of triggered activity (titration)” value with rat left atria [3] (verapamil 2 to 20 μM, ~5 min at each concentration) is “did not affect the rate of triggered activity”.

For `O=S(=O)(O)c1cc(N=C=S)ccc1C=Cc1ccc(N=C=S)cc1S(=O)(=O)O` [DIDS, 4,4′-diisothiocyanatostilbene-2,2′-disulfonic acid], in the experiment on rat left atria [2] (15 μM 2-APB, 0.1 Hz, 3 to 5 min at each DIDS concentration), the “DIDS concentration that reversed SMA completely” value was above 300 µM.

As to `CCN(CC)CC(=O)Nc1c(C)cccc1C` [lidocaine], the “effect … (SMA)” value with rat left atria [2] is recorded as “suppress this arrhythmic activity”.

Take `C[C@@H]1O[C@@H](O[C@H]2C[C@@H](O)[C@]3(CO)[C@H]4[C@H](O)C[C@]5(C)[C@@H](C6=CC(=O)OC6)CC[C@]5(O)[C@@H]4CC[C@]3(O)C2)[C@H](O)[C@H](O)[C@H]1O` [ouabain]: in the experiment on isolated rat left atria, the “ectopic activity / mechanical stability without 2-APB” value is “does not produce ectopic activity; also recorded: does not affect their mechanical stability” and the “effect on left atrial force of contraction” value is on record as “increases their force of contraction; also recorded: doubles their force of contraction”.

As for `CC(C)NCC(O)c1ccc(O)c(O)c1` (stereo not shown) [isoproterenol], the “rate of spontaneous tachycardic activity in the absence of pacing” value with isolated rat left atria (22 μM 2-APB-treated appendage plus 30 nM isoproterenol, 30° C.) is reported as around 230 contractions/min. For the same compound, in the experiment on isolated rat left atria, the “ectopic activity / mechanical stability without 2-APB” value is “does not produce ectopic activity”, the “effect on left atrial force of contraction” value is recorded as “increases their force of contraction”, the “T0.5R (time to 50% relaxation)” value was 29.3^‡ msc and the “T0.9R (time to 90% relaxation)” value is listed as 58.7^‡ msc. Moreover, in the experiment on isolated rat left atria, the “TPT (time to peak tension)” value was 45.0^‡ msc, the “Force Post” value is recorded as 104* mg/gww, the “Force Pre” value was determined as 31 mg/gww and the “SMA Rate” value was 0 SMEs per minute. The “right atrial contraction frequency” value in the experiment with rat right atria was 276±11.4 contractions/min.

For `COC(=O)c1c(C)[nH]c(C)c1C(=O)c1ccccc1Cc1ccccc1` [FPL-64176, 2,5-Dimethyl-4-[2-(phenylmethyl)benzoyl]-1H-pyrrole-3-carboxlic acid methyl ester], in the experiment with isolated rat left atria, the “ectopic activity / mechanical stability without 2-APB” value is given as “does not produce ectopic activity”, the “effect on left atrial force of contraction” value is given as “increases their force of contraction”, the “T0.5R (time to 50% relaxation)” value came out at 35.3 msc and the “T0.9R (time to 90% relaxation)” value is 73.3 msc. Further, in the experiment on isolated rat left atria, the “TPT (time to peak tension)” value turned out to be 52.8 msc, the “Force Post” value is 68* mg/gww, the “Force Pre” value was found to be 30 mg/gww and the “SMA Rate” value is listed as 0 SMEs per minute.

ryanodine: in the experiment on isolated rat left atria, the “ectopic activity / mechanical stability without 2-APB” value is “no STA occurs” and the “effect on left atrial force of contraction” value is listed as “Time-dependent decreases in force of contraction”.

The values above are taken from patent US20110160266A1, “Novel Anti-Arrhythmia Agent” (THE UAB RESEARCH FOUNDATION, priority 2008, published 2011).
